Experimental data taken from patent US11572590B2, “Methods for evaluating tumor cell spheroids using 3D microfluidic cell culture device” (Dana-Farber Cancer Institute, Inc., priority 2017, dated 2023).
Where two headings read alike, the source gives them in different places.

Key:
Experiment in all cases: SelectScreen Kinase Profiling, single point inhibition and IC50 for off-target kinases
Type in all cases: biochemical
off-target kinases [1] = biological target: off-target kinases (Homo sapiens, UniProt Q04912); settings: MST1R (RON), ZLYTE, ATP Km app
off-target kinases [2] = biological target: T1, off-target kinases (Homo sapiens, UniProt Q8TD08); settings: MAPK15 (ERK7), LanthaScreen Binding
T1 sequence (Q8TD08 1-544): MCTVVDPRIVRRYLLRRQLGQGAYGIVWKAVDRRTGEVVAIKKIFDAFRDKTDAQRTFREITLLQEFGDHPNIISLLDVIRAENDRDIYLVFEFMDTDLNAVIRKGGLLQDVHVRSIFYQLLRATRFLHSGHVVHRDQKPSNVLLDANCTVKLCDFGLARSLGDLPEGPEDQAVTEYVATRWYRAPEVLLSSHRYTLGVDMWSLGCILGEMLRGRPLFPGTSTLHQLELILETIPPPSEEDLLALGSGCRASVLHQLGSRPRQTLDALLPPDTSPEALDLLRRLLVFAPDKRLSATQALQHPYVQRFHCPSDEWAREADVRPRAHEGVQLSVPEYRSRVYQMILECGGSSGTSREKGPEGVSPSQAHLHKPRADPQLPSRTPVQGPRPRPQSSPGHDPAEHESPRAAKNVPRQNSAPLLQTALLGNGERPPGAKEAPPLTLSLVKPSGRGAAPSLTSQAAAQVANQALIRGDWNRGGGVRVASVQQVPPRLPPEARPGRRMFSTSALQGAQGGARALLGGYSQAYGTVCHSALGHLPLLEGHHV

off-target kinases [3] = biological target: T2, off-target kinases (Homo sapiens, UniProt Q13043)
T2 sequence (Q13043 1-487): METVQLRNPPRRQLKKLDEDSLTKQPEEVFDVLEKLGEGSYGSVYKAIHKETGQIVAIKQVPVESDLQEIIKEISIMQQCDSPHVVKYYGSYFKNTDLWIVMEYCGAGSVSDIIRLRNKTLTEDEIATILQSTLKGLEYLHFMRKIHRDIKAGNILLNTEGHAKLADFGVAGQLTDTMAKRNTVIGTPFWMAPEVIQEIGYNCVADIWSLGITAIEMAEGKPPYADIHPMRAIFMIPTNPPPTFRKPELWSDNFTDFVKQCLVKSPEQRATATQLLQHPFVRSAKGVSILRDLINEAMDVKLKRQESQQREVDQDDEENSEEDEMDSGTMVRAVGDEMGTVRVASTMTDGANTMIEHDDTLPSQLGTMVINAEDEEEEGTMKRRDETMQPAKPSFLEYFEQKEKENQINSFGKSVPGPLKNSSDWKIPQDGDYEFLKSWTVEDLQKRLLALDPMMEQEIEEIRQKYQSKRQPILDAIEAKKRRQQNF

off-target kinases [4] = biological target: T3, off-target kinases (Homo sapiens, UniProt P53778); settings: MAPK12 (p38 gamma), ZLYTE, ATP Km app
T3 sequence (P53778 1-367): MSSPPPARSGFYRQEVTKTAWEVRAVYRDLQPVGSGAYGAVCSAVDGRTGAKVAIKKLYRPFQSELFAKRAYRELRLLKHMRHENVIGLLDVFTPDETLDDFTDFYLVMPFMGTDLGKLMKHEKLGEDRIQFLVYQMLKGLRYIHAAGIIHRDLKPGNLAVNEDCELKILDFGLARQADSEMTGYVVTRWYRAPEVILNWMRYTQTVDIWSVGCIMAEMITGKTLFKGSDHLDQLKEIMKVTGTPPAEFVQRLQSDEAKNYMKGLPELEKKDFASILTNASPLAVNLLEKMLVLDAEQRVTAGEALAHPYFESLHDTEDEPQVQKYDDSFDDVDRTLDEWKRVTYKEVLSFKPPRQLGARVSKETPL

off-target kinases (Homo sapiens, UniProt Q04912), sequence (Q04912 25-1400): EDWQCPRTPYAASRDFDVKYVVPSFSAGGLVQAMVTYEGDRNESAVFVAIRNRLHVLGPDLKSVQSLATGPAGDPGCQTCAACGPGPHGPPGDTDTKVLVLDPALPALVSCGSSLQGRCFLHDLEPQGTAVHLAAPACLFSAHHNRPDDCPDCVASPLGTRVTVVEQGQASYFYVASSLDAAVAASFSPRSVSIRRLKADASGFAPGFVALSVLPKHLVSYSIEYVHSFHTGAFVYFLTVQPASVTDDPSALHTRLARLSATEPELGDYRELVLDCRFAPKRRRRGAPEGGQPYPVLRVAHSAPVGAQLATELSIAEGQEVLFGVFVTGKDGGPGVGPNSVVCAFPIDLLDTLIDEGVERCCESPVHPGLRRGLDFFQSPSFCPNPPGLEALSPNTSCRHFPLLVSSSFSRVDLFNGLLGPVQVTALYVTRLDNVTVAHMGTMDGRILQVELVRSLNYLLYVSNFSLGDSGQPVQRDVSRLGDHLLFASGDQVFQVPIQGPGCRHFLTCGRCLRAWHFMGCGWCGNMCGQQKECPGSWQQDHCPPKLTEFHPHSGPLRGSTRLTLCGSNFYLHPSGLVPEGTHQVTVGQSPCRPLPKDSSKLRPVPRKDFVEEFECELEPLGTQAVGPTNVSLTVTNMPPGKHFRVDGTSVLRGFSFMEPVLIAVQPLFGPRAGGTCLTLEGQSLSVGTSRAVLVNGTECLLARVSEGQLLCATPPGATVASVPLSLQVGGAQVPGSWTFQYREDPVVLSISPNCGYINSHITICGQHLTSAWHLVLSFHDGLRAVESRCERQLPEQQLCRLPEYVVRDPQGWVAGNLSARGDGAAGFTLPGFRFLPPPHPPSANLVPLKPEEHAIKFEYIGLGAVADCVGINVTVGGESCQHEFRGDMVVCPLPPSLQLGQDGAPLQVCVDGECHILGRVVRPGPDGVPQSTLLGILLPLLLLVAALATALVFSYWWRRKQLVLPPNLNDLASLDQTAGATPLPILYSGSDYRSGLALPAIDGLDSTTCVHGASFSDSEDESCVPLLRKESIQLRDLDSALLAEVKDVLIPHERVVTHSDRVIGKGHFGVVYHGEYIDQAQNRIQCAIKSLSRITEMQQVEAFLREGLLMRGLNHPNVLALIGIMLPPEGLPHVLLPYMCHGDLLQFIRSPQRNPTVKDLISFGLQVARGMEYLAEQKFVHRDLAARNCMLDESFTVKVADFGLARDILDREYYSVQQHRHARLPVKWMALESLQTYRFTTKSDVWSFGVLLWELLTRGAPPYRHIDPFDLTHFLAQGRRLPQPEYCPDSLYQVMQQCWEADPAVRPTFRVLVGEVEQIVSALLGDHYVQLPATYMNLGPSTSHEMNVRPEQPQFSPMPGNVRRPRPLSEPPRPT

Work on `N#Cc1cc(-c2ncnc(Nc3ccc(N4CCN(C5COC5)CC4)cc3)n2)ccc1OC1CCOCC1` [Compound 1, 5-(4-((4-(4-(oxetan-3-yl)piperazin-1-yl)phenyl)amino)-1,3,5-triazin-2-yl)-2-((tetrahydro-2H-pyran-4-yl)oxy)benzonitrile] yielded an inhibition (off-target kinases [1]; read-out: % Inhibition 1) of 38%, an inhibition (off-target kinases [1]; read-out: % Inhibition 2) of 38% and an inhibition (off-target kinases [1]; read-out: % Inhibition Avg) of 38%. The inhibition (off-target kinases [2]; read-out: % Inhibition 1) was 100%, the inhibition (off-target kinases [2]; read-out: % Inhibition 2) was 100% and the inhibition (off-target kinases [2]; read-out: % Inhibition Avg) was 100%. For the same compound, the inhibition (off-target kinases [3]; STK4 (MST1), ZLYTE, ATP Km app, read-out: % Inhibition Avg) was 0%, the inhibition (off-target kinases [3]; read-out: % Inhibition 1) was 0% and the inhibition (off-target kinases [3]; read-out: % Inhibition 2) was 0%. For the same compound, the inhibition (off-target kinases [4]; read-out: % Inhibition 1) was 4%, the inhibition (off-target kinases [4]; read-out: % Inhibition 2) was 3% and the inhibition (off-target kinases [4]; read-out: % Inhibition Avg) was 3%.
